Experimental data published in patent publication US7838490B2, “Methods and compositions for inhibition of vascular permeability” (University of Virginia Patent Foundation, priority 2005, dated 2010).

Legend:
Erk [1] = assay: Erk activation in BAECs (Western blotting, immunostaining); format: cell-based, bovine; details: 20 μg/ml peptide or 25 μM U0126 for 1 hour; for immunostaining for activated Erk: then 25 ng/ml VEGF 30 minutes; for activation of Erk by VEGF (Western blotting): then VEGF 30 min
Protocol: After 1 hour, 25 ng/ml VEGF was added for 30 minutes. Cells were then fixed and stained for activated Erk.
B. Cells as in A were extracted and analyzed for Erk phosphorylation by Western blotting.
D. BAECs were incubated with peptides and stimulated with VEGF as in C, then lysed and analyzed for Erk activation by Western blotting.
Coverslips were washed and mounted using FluoroMount (Invitrogen).

Erk [2] = assay: phospho-Erk staining of lung sections from LPS-treated mice; format: in vivo; details: 6 h, peptides 1 mg, UO126 0.5 ml of 70 μM
Protocol: A. Mice were injected with Nck-blocking peptide (1 mg; comprising SEQ ID NO:7), control peptide (1 mg) or UO126 (0.5 ml of 70 μM), then treated with or without LPS as in FIG. 1. At 6 hours, the lungs were removed, sectioned, and stained for activated Erk using pT202/pY204 antibody. Small arrows indicate unidentified cells in control lungs that stain positively. Large arrows indicate conduit blood vessels.
C. Lungs from mice pretreated with 1 mg/ml PIX blocking peptide and exposed to LPS as in FIG. 3A were stained for phospho-Erk. […] Arrow indicates a conduit vessel.
Control animals inhaled saline.
Mouse lungs were inflated with an intratracheal instillation of PFA 4% at a constant pressure (20 cm H2O) for 15 minutes. Next, lungs were removed and fixed in PFA 4% for 24 h and embedded in paraffin. Sections (5 μm) were cut for IHC and treated with antigen unmasking solution (Vector Laboratories). Sections were stained with monoclonal rabbit anti p-ERK (1:400 Cell Signaling) overnight and detected with Vectastain Elite Kit (Vector Laboratories). Visualization was done with DAB (Dako Corp) and couterstained with hematoxylin. Images were acquired using 20 or 40× objective on a microscope (model BX51; Olympus) equipped with a digital camera (model DP70 Olympus) using ImagePro software program.

[3] = tested on: mice exposed to aerosolized LPS; assay: LPS-induced pulmonary microvascular permeability (Evans blue dye extravasation)
Protocol: B. Mice inhaled LPS with control or Nck blocking peptide as in A. At 6 hours, they were injected with Evans blue dye and leakage into the lung assayed at 1 h.
B. Mice received intraperitoneal injections with the indicated amounts of the PIX blocking or control peptides. They were treated with aerosolized LPS for 6 h then leakage of Evans blue dye into the lung assayed as described in Methods.
Wild type male mice (C57B1/6, 8 to 12 weeks of age, Jackson Labs, Bar Harbor, Me.) were exposed to aerosolized LPS (Salmonella enteritidis, Sigma Co., St. Louis, Mo.) for 30 min. […] Control animals inhaled saline. Some mice received intraperitoneal (ip) injection of the PAK inhibitory or control peptides 30 min prior to treatment. […] Permeability was analyzed at 6 h using the Evans blue dye extravasation technique (Green et al., 1988). Briefly, Evans blue (20 mg/kg; Sigma) was injected intravenously 30 minutes prior to euthanasia. Lungs were perfused through the spontaneously beating right ventricle to remove intravascular dye. Lungs were removed and Evans blue was extracted as described (Peng et al., 2004). The absorption of Evans blue was measured at 620 nm and corrected for the presence of heme pigments: A620 (corrected)=A620−(1.426×A740+0.030) (Wang le et al., 2002). Extravasated Evans blue was calculated against a standard curve (micrograms Evans blue dye per gram lung).

[4] = tested on: interaction between PAK and PIX; details: BAECs, 20 μg/ml peptide 1 h, VEGF 30 min
Protocol: BAECs were incubated with PIX blocking or control peptide at 20 μg/ml for 1 h, then stimulated with VEGF for 30 min. Cells were rinsed, lysed, and βPIX immunoprecipitated. The IP's were analyzed by Western blotting.
Cells were stimulated, washed with cold PBS, extracted with 0.5 ml cold immunoprecipitation (IP) buffer (20 mM Tris pH 7.6, 0.5% NP40, 250 mM NaCl, 5 mM EDTA, 3 mM EGTA; plus Sigma protease and phosphatase inhibitor cocktails) for 10 min. They were passed through an 18 gauge needle 3× and centrifuged for 10 min at 12,000×g in a microfuge. Supernatants were precleared with 25 μl of Protein G-agarose beads and incubated with the indicated primary antibody for 2 hrs at 4°. […] 25 μl of protein A- or protein G-agarose beads were added and incubated for another 2 h while rotating at 4° C. Beads were sedimented and washed 3× with 0.5 ml IP buffer and separated by SDS-PAGE. […] Proteins were electrophoretically transferred to PVDF membranes, blocked with 5% milk in Tris-buffered saline (TBS) and probed overnight with primary antibodies in the same buffer. Membranes were washed 4×, probed with secondary antibodies for 2 h, and then visualized using chemiluminescence (ECL, Amersham).

HUVECs = assay: In vitro permeability: HRP leakage across HUVEC monolayer; format: cell-based, human; details: peptide 20 μg/ml, not shown
Protocol: B. HUVECs were transfected with siRNA oligonucleotides specific to GIT1 or with control, scrambled siRNA. Total cell lysates at 72 hours were analyzed for GIT1 expression by Western blotting (top). Cells on filters were analyzed for permeability to HRP after treatment with VEGF (50 ng/ml), histamine (10 μM) or thrombin (0.2 U/ml).
The βPIX and GIT1 constructs were obtained from Dr. A. F. Horwitz. The ΔGBD βPIX (mutated for GIT1 binding) and ΔSHD mutant of GIT1 (mutated for PIX and MEK binding) were as described (Zhang et al., 2003). Dominant negative MEK1 was as described (Renshaw et al., 1997). GIT1 Smartpool siRNA oligos against human sequence were obtained from Dharmacon and the experiments were carried out in HUVECs. The Smartpool mixture contained 4 different siRNA oligos. The four different sense sequences are:
BAECs on FN-coated 3 μm filters at near-confluence were transfected with 0.5 μg cDNA using Effectene as described above. At 48 h, cells were pre-treated for 60 min with PAK peptides as indicated. For some experiments, cells were nucleofected, then plated on filters and grown to confluence for 48 hr. Filters were then placed in outer wells with 500 μl fresh DMEM without phenol red or serum. To each filter well was added 200 μl medium plus 50 μl of 1.5 μg/ml horseradish peroxidase (HRP) with or without cytokines as described. […]

BAECs = assay: In vitro permeability: HRP leakage across BAEC monolayer on 3 μm filters; format: cell-based; details: bovine endothelial cells; peptide 20 μg/ml
Protocol: C. […] Cells were left untreated or stimulated for […] with 25 ng/ml VEGF, 50 ng/ml bFGF, or 10 μM histamine. Leakage of horseradish peroxidase (HRP) across the filter was assayed as described in Methods.
A. BAECs on filters with 3.0 μm pores were pretreated with 20 μg/ml PIX blocking or control peptides for 1 hour, then stimulated with VEGF for 30 minutes. HRP movement across the monolayer was assayed as described in Methods.
BAECs on FN-coated 3 μm filters at near-confluence were transfected with 0.5 μg cDNA using Effectene as described above. At 48 h, cells were pre-treated for 60 min with PAK peptides as indicated. For some experiments, cells were nucleofected, then plated on filters and grown to confluence for 48 hr. Filters were then placed in outer wells with 500 μl fresh DMEM without phenol red or serum. To each filter well was added 200 μl medium plus 50 μl of 1.5 μg/ml horseradish peroxidase (HRP) with or without cytokines as described. After 30 min, filters were removed and fixed, and the medium in the lower wells assayed for HRP as described (Stockton et al., 2004). Values were normalized to control, untreated wells.

[5] = tested on: other SH3-containing proteins; details: cell lysates; Western blotting
Protocol: (§1) B. Cell lysates were incubated with peptides immobilized on streptavidin beads and the whole cell lysates (WCL) or bound proteins analyzed by Western blotting.
(§2) Cells were stimulated, washed with cold PBS, extracted with 0.5 ml cold immunoprecipitation (IP) buffer (20 mM Tris pH 7.6, 0.5% NP40, 250 mM NaCl, 5 mM EDTA, 3 mM EGTA; plus Sigma protease and phosphatase inhibitor cocktails) for 10 min. They were passed through an 18 gauge needle 3× and centrifuged for 10 min at 12,000×g in a microfuge. […] Anti-GIT1 and anti-βPIX were from Santa Cruz Biotechnology. […] For binding to peptides, 25 μg of biotin-tagged peptides were incubated with 25 μl of streptavidin beads for 30 min, then rinsed and incubated with 0.5 cell lysates for 30 min. Bound proteins were detected by Western blotting with the indicated antibodies. For βPIX, cells were transfected with HA-PIX and blots probed using anti-HA. Proteins were electrophoretically transferred to PVDF membranes, blocked with 5% milk in Tris-buffered saline (TBS) and probed overnight with primary antibodies in the same buffer. Membranes were washed 4×, probed with secondary antibodies for 2 h, and then visualized using chemiluminescence (ECL, Amersham).

actin cytoskeleton = details: BAECs; 20 μg/ml peptide; bFGF 60 min
Protocol: E. Cells incubated with peptides as in C and stimulated with bFGF for 60 min, then stained for F-actin.
Cells were fixed for 60 minutes in 3.5% formaldehyde, washed, and permeabilized for 10 minutes in 0.2% TX100. Coverslips were blocked with PBS containing 10% goat serum for 60 minutes, then probed 8 hours at 4° C. with 200 μl containing the following antibodies: phospho-ERK at 1:500; phospho-MEK at 1:500; phospho-PAK at 1:500; phospho-MLC at 1:500 (all from BioSource International); βPIX at 1:200 or GIT1 at 1:200 (Santa Cruz Biotechnology). Coverslips were washed and probed overnight at 4° C. with 200 μl anti-mouse IgG-Alexa 568 or anti-rabbit IgG-Alexa 488 (Molecular Probes) at 1:1000. Coverslips were washed and mounted using FluoroMount (Invitrogen).

CD2AP = molecular target: T1, CD2AP (Homo sapiens, UniProt Q9Y5K6); assay: Pull-down from cell lysates with biotin-tagged peptides on streptavidin beads; format: binding; details: higher amounts of cell lysates; not shown
T1 construct: endogenous in cells
T1 sequence (Q9Y5K6 whole entry, species assumed): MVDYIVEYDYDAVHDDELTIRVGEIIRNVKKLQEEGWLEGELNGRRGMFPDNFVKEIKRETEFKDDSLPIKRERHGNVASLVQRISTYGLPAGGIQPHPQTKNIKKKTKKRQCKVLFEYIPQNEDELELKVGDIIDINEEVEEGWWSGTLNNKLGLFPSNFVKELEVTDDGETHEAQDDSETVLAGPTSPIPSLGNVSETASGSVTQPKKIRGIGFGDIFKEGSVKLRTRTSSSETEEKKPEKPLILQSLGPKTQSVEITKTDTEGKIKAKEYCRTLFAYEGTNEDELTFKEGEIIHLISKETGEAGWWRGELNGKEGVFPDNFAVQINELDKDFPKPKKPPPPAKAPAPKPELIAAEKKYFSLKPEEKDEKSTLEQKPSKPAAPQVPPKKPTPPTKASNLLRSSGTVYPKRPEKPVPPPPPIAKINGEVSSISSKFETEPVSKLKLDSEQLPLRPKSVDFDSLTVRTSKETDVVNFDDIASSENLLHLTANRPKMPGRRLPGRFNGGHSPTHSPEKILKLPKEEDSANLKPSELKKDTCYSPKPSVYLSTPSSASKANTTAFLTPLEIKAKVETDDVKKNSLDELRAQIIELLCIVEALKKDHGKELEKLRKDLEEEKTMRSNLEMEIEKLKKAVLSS

cortactin = molecular target: T2, cortactin (Homo sapiens, UniProt Q14247); assay: as above; format: binding; details: Western blotting
T2 construct: endogenous in cells
T2 sequence (Q14247 1-550): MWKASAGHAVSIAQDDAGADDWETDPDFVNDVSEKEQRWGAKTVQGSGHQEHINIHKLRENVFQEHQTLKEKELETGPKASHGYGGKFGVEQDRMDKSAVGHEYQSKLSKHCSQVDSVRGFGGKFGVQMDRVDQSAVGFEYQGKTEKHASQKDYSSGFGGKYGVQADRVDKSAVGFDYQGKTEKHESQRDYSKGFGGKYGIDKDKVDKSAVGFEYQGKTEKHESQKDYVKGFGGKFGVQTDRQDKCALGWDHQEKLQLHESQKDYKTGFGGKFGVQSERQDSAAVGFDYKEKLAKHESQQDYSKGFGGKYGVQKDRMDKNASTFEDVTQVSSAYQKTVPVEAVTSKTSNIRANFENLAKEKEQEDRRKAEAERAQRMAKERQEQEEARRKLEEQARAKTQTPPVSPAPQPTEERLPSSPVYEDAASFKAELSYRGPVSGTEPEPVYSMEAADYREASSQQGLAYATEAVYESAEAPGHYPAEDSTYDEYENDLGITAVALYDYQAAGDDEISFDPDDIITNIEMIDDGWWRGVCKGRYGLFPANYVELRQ
Protocol: as §1, §2

DOCK180 = molecular target: T3, DOCK180 (Homo sapiens, UniProt Q14185); assay: as above; format: binding; details: higher amounts of cell lysates; not shown
T3 construct: endogenous in cells

βPIX = molecular target: T4, βPIX (Homo sapiens, UniProt Q14155); assay: as above; format: binding; details: Western blotting
T4 construct: expressed in transfected cells
T4 sequence (Q14155 1-646 isoform Q14155-1): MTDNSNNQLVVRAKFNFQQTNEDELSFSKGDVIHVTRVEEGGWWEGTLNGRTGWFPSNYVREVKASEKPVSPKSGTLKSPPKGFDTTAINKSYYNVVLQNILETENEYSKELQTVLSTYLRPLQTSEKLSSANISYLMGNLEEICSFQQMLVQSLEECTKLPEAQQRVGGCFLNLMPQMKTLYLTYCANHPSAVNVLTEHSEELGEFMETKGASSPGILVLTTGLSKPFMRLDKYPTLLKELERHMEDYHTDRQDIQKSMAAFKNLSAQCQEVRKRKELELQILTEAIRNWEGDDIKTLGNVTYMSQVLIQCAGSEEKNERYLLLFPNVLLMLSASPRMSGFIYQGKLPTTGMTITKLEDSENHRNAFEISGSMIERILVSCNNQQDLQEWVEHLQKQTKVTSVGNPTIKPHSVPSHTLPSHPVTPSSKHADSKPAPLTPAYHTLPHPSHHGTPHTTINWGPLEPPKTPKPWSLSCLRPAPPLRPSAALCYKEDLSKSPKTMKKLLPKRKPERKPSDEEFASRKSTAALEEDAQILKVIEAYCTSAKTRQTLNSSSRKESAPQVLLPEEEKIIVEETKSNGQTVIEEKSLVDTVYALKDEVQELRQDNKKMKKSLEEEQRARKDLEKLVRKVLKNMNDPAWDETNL
Protocol: as §1, §2

Molecule	immunostaining for activated Erk (Erk [1])	activation of Erk by VEGF (Western blotting) (Erk [1])	Erk activation (phospho-Erk staining) in lung sections (Erk [2])	induction of vascular leak by LPS (Evans blue dye) ([3]; 0.5 ml of 70 μM U0126 ip, 6 h)	leakage of Evans blue dye into the lung after inhalation of LPS ([3]; 1 mg peptide ip prior to aerosolized LPS, assayed at 6 h)	amount of PIX in βPIX immunoprecipitates [4]	reduction of PAK in βPIX precipitates ([4]; peptide washed out before lysis)	block of the increase in permeability in vitro in response to VEGF (HUVECs)	block of the increase in permeability in vitro in response to VEGF (BAECs)	binding of other SH3-containing proteins to immobilized peptide [5]	increase in actin stress fibers in response to bFGF or VEGF (actin cytoskeleton)	binding of CD2AP to immobilized peptide (CD2AP)	binding of cortactin to immobilized peptide (cortactin)	binding of DOCK180 to immobilized peptide (DOCK180)	binding of βPIX to immobilized peptide (βPIX)
N#CC(=C(/N)Sc1ccccc1N)/C(C#N)=C(\N)Sc1ccccc1N [U0126, reference compound]	nearly eliminated	blocked	blocked Erk activation throughout the tissue	significantly blocked	–	–	–	–	–	–	–	–	–	–	–
YGRKKRRQRRRGKPPAPPMRNTSTM (listed as Homo sapiens) [Nck-blocking peptide]	decreased phosphoErk at cell-cell borders	blocked	largely prevented	–	strongly inhibited	–	–	–	–	–	–	–	–	–	–
YGRKKRRQRRRGPPPVIAPRPEHTKSVYTR-K+Biotin [PIX-binding peptide]	–	–	–	–	–	no effect	about 70%	approximately 80%	approximately 80%	no binding	blocked	weak, specific binding	weak but reproducible binding	weak but nonspecific binding	bound βPIX with high efficiency
